Data reported in PMC11997985, “Synthesis and In Vitro Profiling of Psilocin Derivatives: Improved Stability and Synthetic Properties” (Journal of Medicinal Chemistry, 2025).

Assays:
[1] = Chemical stability in 1.0 M NaHCO3 and 1.0 M HCl
[2] = Co-factor experiment: microsome suspension with and without NADPH; assay type: in vitro ADME, human; details: for Co-factor experiment: degradation with and without addition of NADPH compared; for microsomal CLint: human, human microsome suspension, both with and without the addition of NADPH, read-out: intrinsic clearance
Description: Therefore, additional experiments comparing stability with and without the addition of NADPH cofactor and a very short incubation period were performed (Tables S4 and S5). […] Due to the rapid observed degradation in microsomes, we decided to investigate the stability of five compounds in human plasma, aiming for a broad range of stabilities (Table 2, Table S6). It should be noted that esterase-labile compounds are notoriously difficult to study in microsomal stability studies.[36]
Table S3 Evaluation of metabolic stability in human microsomes
No. Metabolic stability Comment
4k <10/<10 Low retention in chromatography
8 <10/<10 Low retention in chromatography.
Table S4 Results from the modified microsome assay where degradation with and without the addition of NADPH was compared […]
4d Very low peak area for the first time point,
4e Very low peak area for the first time point,
4f Very low peak area for the first time point,
5 Very low peak area for the first time point,
8 No degradation without co -factor […]
metabolism by the microsomes (consisting mainly of cytochrome P450 enzymes) or if it was due to other factors, the compounds (with the exception of 4k) were incubated in the microsome suspension both with and without the addition of NADPH. Samples […]
were taken at three timepoints, and the degradation was compared to determine if it was dependent on NADPH. Compound 4k […]
without the addition of NADPH. […]
microsomes that need to be activated by a co -factor.
Table S5 Percent of peak area found in microsome suspension 15 seconds after the addition of NADPH in comparison with the same amount dissolved in H2O/EtOH
No. Area at 0.25 min. in Area in solution % found in microsomes/NADPH (125 nM) microsome
Comparison with compounds in solution. A comparison was made between the peak area of the compounds in solution with that obtained in the microsome suspension directly after the addition of NADPH (about 0.25 minutes) (Table S5). Before the addition of NADPH, the compounds are equilibrated in the microsome suspension for approximately five minutes. All compounds were prepared in solution by diluting a portion of the DMSO solutions with H2O/EtOH (75:25) to 125 nM (the final concentration of compounds for analysis in the microsome assay).
For the compounds where no results from the microsome assay could be reported due to low peak area (4d, 4e, 4f & 5), less than one percent of the expected peak area as compared with the area in solution was detected. […]
degrade rapidly before the addition of the co-factor after five minutes in incubation. For compounds 4g, 4h, 4i & 4j, which were […]
higher relative peak areas were found. […]
without NADPH was only found at 15% of the area seen in solution in the microsome suspension.

[3] = Compounds in pre-precipitated (inactivated) plasma; assay type: in vitro ADME, human; details: for % found in incubation plasma at time 0.2 min: peak area in incubation plasma versus pre-precipitated plasma; for degradation in inactivated plasma: plasma pretreated with acetonitrile
Description: Materials for experiments described in the supporting information (solubility) […]
Dimethylsulfoxide (DMSO) CHROMASOLV™ Plus, >99.7%
Acetonitrile (MeCN) LiChrosolv, hypergrade for LC-MS, Merck Chemicals
Formic acid (HCOOH) For LC-MS, Carlo-Erba
Water > 18MΩcm quality (Milli-Q, Millipore
Di-sodium-hydrogenphoshate dihydrate Merck
Sodium-dihydrogenphosphate monohydrate Merck
Autosampler Agilent 1260 Multisampler, G7167A
Gradient LC-pump Agilent 1260 Flexible Pump, G7104C
Analytical Flow 0.5 mL/min
Analytical column Luna® Omega 1.6 µm Polar C18 100Å, 50 x 2.1 mm
Injection volume 3.0 µL (15 µL for “high” injection of buffer sample) […]
Mobile phase A H2O/MeCN/Formic acid 95/5/0.1
Mobile phase B H2O/MeCN/Formic acid 5/95/0.1
Materials and analytical parameters for FT-ICR-MALDI-HRMS
The high-resolution mass spectrometry (HR-MS) experiments were performed using a MALDI-Fourier-transform ion cyclotron resonance (FTICR) (7T solariX XR-2ω, Bruker Daltonics) mass spectrometer equipped with a Smartbeam II 2 kHz laser. Briefly, a stock solution (1mg/ml) of the compound 5 was prepared and mixed 1:1 with a matrix solution containing DHB (40 mg/ml) in 50% ACN (0.02% TFA). 1 µl of the mixed solution was spotted onto MPTP MALDI target plate (Bruker Daltonics) and dried at room temperature. The instrument was tuned for optimal detection of small molecules (m/z 86–500) in positive polarity using the quadrature phase detection (QPD) (2ω) mode. The method was calibrated with red phosphorus over the mass range and DHB matrix ion [2M–2H2O+H]+ m/z 273.039364 was used as lock mass. The compound was identified with sub ppm mass accuracy and specific isotopic pattern of boron in its molecular structure.
Incubation samples. 10 mM stock solutions of test compounds in DMSO were used to prepare 100 μM solutions by dilution in EtOH/water 25/75 (v/v). 6 μL of the 100 μM solution was spiked into 594 μL pre-warmed plasma at 37 °C giving a final concentration of 1 μM. The incubation tube was then mixed on a vortex. A sample (60 μL) was taken and added to an Eppendorf tube containing 180 μL acetonitrile. The tube was thoroughly mixed with a vortex. The precipitated sample was then treated with centrifugation (10.000 g, 10 minutes, 18 °C), 150 μL of the supernatant was mixed with 450 μL water directly into a LC-vial (glass). This step was repeated for every time point. The first time point was approximately taken 15-20 seconds after spiking.
Other timepoints were 5,10, 30, 60, 120, 240 minutes. Pre-precipitated samples. 594 μL of pre-warmed plasma was precipitated with 1800 μL ACN. 6 μL of the 100 μM solution was spiked into the precipitated plasma. 1 mL was removed and added to an Eppendorf tube. After a centrifugation step (10.000 g, 10 minutes, 18 °C), 150 μL of the supernatant was mixed with 450 μL water directly into a LC-vial (glass).
Metabolic stability in human microsomes
The assay was run at 37°C with a microsomal protein concentration of 0.5 mg/mL and a compound concentration of 1 μM in a 0.1 M potassium phosphate buffer at pH 7.4. The compounds were added to the microsome suspension whereafter the enzymatic reaction was initiated by the addition of the co-factor NADPH, giving a final NADPH concentration of 1 mM (Table 9). Samples […]
Table S6 Time-dependent decline in concentration of five compounds for in vitro plasma stability in human plasma and […]
Plasma stability. The compounds were incubated separately at a concentration of 1 μM in +37°C pre-warmed pooled human plasma from commercial resources. The incubations were performed over a four-hour period with the first sample taken after addition of the compounds to plasma followed by a thorough mixing, with further sampling at 5, 10, and 30 minutes as well as 1, 2, and 4 hours. The samples were analyzed by LC-MS/MS using relative peak areas for the calculations of the time-dependent […]
Table S7 Comparison of peak area in incubation plasma after addition and mixing with pre-precipitated plasma. […]

[4] = Solubility, screen method, phosphate buffer pH 7.4, 1% DMSO; assay type: physicochemical; details: phosphate buffer with 1% DMSO; 100 mM phosphate buffer pH 7.4, 1% DMSO; assay range 0.1 to 100 μM

Row | Structure (SMILES) | half-life at 5 mM ([1]; 1.0 M HCl) | half-life at 24 h, 5 mM ([1]; 1.0 M NaHCO3) | Co-factor experiment [2] | % found in incubation plasma at time 0.2 min [3] | degradation in inactivated plasma [3] | solubility [4] | microsomal CLint [2] | half-life at 24 h, 5 mM ([1]; 1.0 M HCl) | half-life at 5 mM ([1]; 1.0 M NaHCO3)
1 | CN(C)CCc1c[nH]c2cccc(OP(=O)(O)O)c12 [Compound 8, 4-phosphoryloxy-N,N-dimethyltryptamine, reference compound] | > 6.94 days | 10.4 days | No degradation without co-factor | 67% | fairly stable |  |  |  | 
2 | CCOC(=O)Oc1cccc2[nH]cc(CCN(C)C)c12.O=C(O)/C=C/C(=O)O [Compound 4i] | > 6.94 days | 2.08 days | Degradation without co-factor | 17% | heavily degraded | 88 µM | > 200 µL/min/mg |  | 
3 | CC(=O)Oc1cccc2[nH]cc(CCN(C)C)c12.O=C(O)/C=C/C(=O)O [Compound 4a, 4-acetoxy-N,N-dimethyltryptamine] |  | 0.625 days | Degradation without co-factor | 9.8% | heavily degraded | 77 µM | > 200 µL/min/mg | 0.208 days | 
4 | CN(C)CCc1c[nH]c2cccc(OC(=O)C3CC3)c12.O=C(O)/C=C/C(=O)O [Compound 4g] |  | 7.64 days | Degradation without co-factor | 90% | fairly stable | > 90 µM | > 200 µL/min/mg | 4.17 days | 
5 | CN(C)CCc1c[nH]c2cccc(OCc3ccccc3)c12 [Compound 3, 4-Benzyloxy-N,N-dimethyltryptamine] | > 6.94 days |  | No degradation without co-factor | 115% | fairly stable | > 90 µM |  |  | > 6.94 days
